Where no end group is shown, it is not given here.
Columns and labels:
E. coli B2 = format: cell-based
Procedure: (§1) The MICs of all drugs were determined by micro-broth dilution method according to CLSI 2018 guidelines. Briefly, a single colony of the bacterial strain was transferred to 1 mL of Mueller Hilton broth (MHB) and overnight at 37 °C and then 10 μL were cultured in a new 1 mL medium for 4 to 6 h, and then the bacterial culture at the logarithmic phase was diluted to 1 × 10^6 CFUs/mL. The assay was performed by adding 100 μL of each peptide solution at various concentrations (0.25 to 128 μg/mL) and 100 μL of diluted bacterial culture to different wells of a 96-well microtiter plate (Corning, NY, USA). After incubation at 37 °C for 16 to 18 h and then read its MIC value. MIC value is defined as the lowest drug concentration without visible bacteria.
(§2) Then, the antibacterial activity of the peptides affected by different temperatures and pH were determined according to the determination steps of MICs test.
(§3) In MHB medium, Na^+, K^+, Mg^2+ and Ca^2+ with the final concentrations of 10 mM, fetal bovine serum, plasma or DMEM medium (Hyclone, Logan, UT, USA) with the final concentrations of 10% was added, and then MIC values were measured to evaluate the effects of different cations, serum and plasma on the antibacterial activity of peptides.
(§4) The peptide was incubated with protease (pepsin, trypsin and papain) (Solarbio, Beijing, China) with a final concentration of 1 mg/mL at 37 °C for 1 h, then the mixture of peptide and protease was heated at 100 °C for 30 min, then centrifuged at 13,000× g for 30 min, and the supernatant was taken for MIC determination.

[1] = system: P. cibarius HNCF44W (blaNDM-1+ tet(X6)); assay: organism not typed; format: cell-based
Procedure: (§5) S. aureus ATCC 29213, E. coli ATCC 25922, S. enteritidis ATCC 13076 and A. baumannii ATCC 19609 were obtained from the American Type Culture Collection (ATCC). The remaining strains used in the experiment were all preserved strains in our laboratory. All strains were cultured in nutrient broth overnight to the logarithmic phase at 37 °C prior to each experiment.
as §1

MRSA 1530 = assay: microbe, parasite or virus in culture; format: cell-based, Staphylococcus aureus; conditions: 1530
Procedure: as §5, §1

MRSA T144 [2] = assay: microbe, parasite or virus in culture; format: cell-based, Staphylococcus aureus; conditions: T144
Procedure: as §5, §1

[3] = system: E. coli B2 (blaNDM-5 + mcr-1); assay: microbe, parasite or virus in culture; format: cell-based; conditions: B2 (blaNDM-5 + mcr-1)
Procedure: as §5, §1

E. coli G92 (mcr-1) = assay: microbe, parasite or virus in culture; format: cell-based; conditions: G92 (mcr-1)
Procedure: as §5, §1

S. aureus G16 (RIF^R) = assay: microbe, parasite or virus in culture; format: cell-based; conditions: S. aureus G16 (RIF^R); micro-broth dilution CLSI 2018, MHB, 37 °C, 16 to 18 h
Procedure: as §5, §1

E. coli 1F28 (tet(X4)) = assay: microbe, parasite or virus in culture; format: cell-based; conditions: 1F28 (tet(X4))
Procedure: as §5, §1

A. baumannii ATCC 19609 = assay: microbe, parasite or virus in culture; format: cell-based; conditions: ATCC 19609
Procedure: as §5, §1

P. aeruginosa PA14 = assay: microbe, parasite or virus in culture; format: cell-based; conditions: PA14
Procedure: as §5, §1

[4] = system: P. aeruginosa (VIM + tmexCD1-torJ1); assay: microbe, parasite or virus in culture; format: cell-based; conditions: VIM + tmexCD1-torJ1
Procedure: as §5, §1

E. coli C3 (blaNDM-1) = assay: microbe, parasite or virus in culture; format: cell-based; conditions: C3 (blaNDM-1)
Procedure: as §5, §1

E. coli ATCC 25922 = assay: microbe, parasite or virus in culture; format: cell-based; conditions: ATCC 25922
Procedure: as §5, §1

[5] = system: E. faecalis A4 (VRE, VanA); assay: microbe, parasite or virus in culture; format: cell-based; conditions: A4 (VRE, VanA)
Procedure: as §5, §1

E. coli CP131 (mcr-3) = assay: microbe, parasite or virus in culture; format: cell-based; conditions: CP131 (mcr-3)
Procedure: as §5, §1

E. coli B3-1 (tet(X4)) = assay: microbe, parasite or virus in culture; format: cell-based; conditions: B3-1 (tet(X4))
Procedure: as §5, §1

[6] = system: S. aureus 215 (cfr + LZD^R); assay: microbe, parasite or virus in culture; format: cell-based; conditions: S. aureus 215 (cfr + LZD^R); micro-broth dilution CLSI 2018, MHB, 37 °C, 16 to 18 h
Procedure: as §5, §1

[7] = system: S. enteritidis ATCC 13076; assay: microbe, parasite or virus in culture; format: cell-based; conditions: ATCC 13076
Procedure: as §5, §1

S. aureus ATCC 29213 = assay: microbe, parasite or virus in culture; format: cell-based; conditions: ATCC 29213
Procedure: as §5, §1

E. coli G6 (blaNDM-5) = assay: microbe, parasite or virus in culture; format: cell-based; conditions: G6 (blaNDM-5)
Procedure: as §5, §1

MRSA T144 [8] = format: cell-based, Staphylococcus aureus
Procedure: as §1, §2, §3, §4

**Q.** For GWKSFFKKWKHVWK [GK-2], which “MIC after treatment at 121 °C” value (E. coli B2; B2) is on record?
**A.** 2 µg/mL

**Q.** And the “MIC in DMEM (10%)” value (E. coli B2; B2)?
**A.** 4 µg/mL

**Q.** What about the “MIC in Plasma (10%)” value (E. coli B2; B2) of the same sequence?
**A.** 0.5 µg/mL

**Q.** What about the “MIC in Serum (10%)” value (E. coli B2; B2) of the same sequence?
**A.** 4 µg/mL

**Q.** What about the “MIC in presence of Ca^2+” value (E. coli B2; B2) of the same sequence?
**A.** >128 µg/mL

**Q.** And the “MIC in presence of K^+” value (E. coli B2; B2)?
**A.** 2 µg/mL

**Q.** And the “MIC in presence of Mg^2+” value (E. coli B2; B2)?
**A.** 32 µg/mL

**Q.** And the “MIC in presence of Na^+” value (E. coli B2; B2)?
**A.** 2 µg/mL

**Q.** And the “MIC, Control” value (E. coli B2; B2)?
**A.** 2 µg/mL

**Q.** What about the “MIC after Papain treatment” value (E. coli B2; B2, 1 h) of the same sequence?
**A.** >128 µg/mL

**Q.** What about the “MIC after Pepsin treatment” value (E. coli B2; B2, 1 h) of the same sequence?
**A.** 128 µg/mL

**Q.** And the “MIC after Trypsin treatment” value (E. coli B2; B2, 1 h)?
**A.** >128 µg/mL

**Q.** And the “MIC after treatment at 40 °C” value (E. coli B2; B2, 1 h)?
**A.** 2 µg/mL

**Q.** And the “MIC after treatment at 60 °C” value (E. coli B2; B2, 1 h)?
**A.** 4 µg/mL

**Q.** And the “MIC after treatment at 80 °C” value (E. coli B2; B2, 1 h)?
**A.** 2 µg/mL

**Q.** And the “MIC after treatment at 100 °C” value (E. coli B2; B2, 1 h)?
**A.** 2 µg/mL

**Q.** What about the “MIC after treatment at pH 2” value (E. coli B2; B2, 1 h, pH 2) of the same sequence?
**A.** 2 µg/mL

**Q.** And the “MIC after treatment at pH 4” value (E. coli B2; B2, 1 h, pH 4)?
**A.** 4 µg/mL

**Q.** And the “MIC after treatment at pH 6” value (E. coli B2; B2, 1 h, pH 6)?
**A.** 2 µg/mL

**Q.** What about the “MIC after treatment at pH 8” value (E. coli B2; B2, 1 h, pH 8) of the same sequence?
**A.** 2 µg/mL

**Q.** What about the “MIC after treatment at pH 10” value (E. coli B2; B2, 1 h, pH 10) of the same sequence?
**A.** 2 µg/mL

**Q.** And the “MIC after treatment at pH 12” value (E. coli B2; B2, 1 h, pH 12)?
**A.** 2 µg/mL

**Q.** And the MIC [1]?
**A.** 8 µg/mL

**Q.** What about the MIC (MRSA 1530) of the same sequence?
**A.** 32 µg/mL

**Q.** What about the MIC (MRSA T144 [2]) of the same sequence?
**A.** 8 µg/mL

**Q.** And the MIC [3]?
**A.** 2 µg/mL

**Q.** And the MIC (E. coli G92 (mcr-1))?
**A.** 2 µg/mL

**Q.** What about the MIC (S. aureus G16 (RIF^R)) of the same sequence?
**A.** 8 µg/mL

**Q.** And the MIC (E. coli 1F28 (tet(X4)))?
**A.** 16 µg/mL

**Q.** What about the MIC (A. baumannii ATCC 19609) of the same sequence?
**A.** 8 µg/mL

**Q.** And the MIC (P. aeruginosa PA14)?
**A.** 16 µg/mL

**Q.** What about the MIC [4] of the same sequence?
**A.** 16 µg/mL

**Q.** And the MIC (E. coli C3 (blaNDM-1))?
**A.** 2 µg/mL

**Q.** And the MIC (E. coli ATCC 25922)?
**A.** 8 µg/mL

**Q.** What about the MIC [5] of the same sequence?
**A.** 16 µg/mL

**Q.** What about the MIC (E. coli CP131 (mcr-3)) of the same sequence?
**A.** 2 µg/mL

**Q.** What about the MIC (E. coli B3-1 (tet(X4))) of the same sequence?
**A.** 4 µg/mL

**Q.** And the MIC [6]?
**A.** 4 µg/mL

**Q.** What about the MIC [7] of the same sequence?
**A.** 4 µg/mL

**Q.** And the MIC (S. aureus ATCC 29213)?
**A.** 4 µg/mL

**Q.** And the MIC (E. coli G6 (blaNDM-5))?
**A.** 2 µg/mL

**Q.** What about the “MIC after treatment at 121 °C” value (MRSA T144 [8]; T144) of the same sequence?
**A.** 4 µg/mL

**Q.** And the “MIC in DMEM (10%)” value (MRSA T144 [8]; T144)?
**A.** 4 µg/mL

**Q.** And the “MIC in Plasma (10%)” value (MRSA T144 [8]; T144)?
**A.** 4 µg/mL

**Q.** And the “MIC in Serum (10%)” value (MRSA T144 [8]; T144)?
**A.** 8 µg/mL

**Q.** What about the “MIC in presence of Ca^2+” value (MRSA T144 [8]; T144) of the same sequence?
**A.** >128 µg/mL

**Q.** And the “MIC in presence of K^+” value (MRSA T144 [8]; T144)?
**A.** 4 µg/mL

**Q.** What about the “MIC in presence of Mg^2+” value (MRSA T144 [8]; T144) of the same sequence?
**A.** 4 µg/mL

**Q.** And the “MIC in presence of Na^+” value (MRSA T144 [8]; T144)?
**A.** 2 µg/mL

**Q.** What about the “MIC, Control” value (MRSA T144 [8]; T144) of the same sequence?
**A.** 8 µg/mL

**Q.** What about the “MIC after Papain treatment” value (MRSA T144 [8]; T144, 1 h) of the same sequence?
**A.** >128 µg/mL

**Q.** And the “MIC after Pepsin treatment” value (MRSA T144 [8]; T144, 1 h)?
**A.** 64 µg/mL

**Q.** What about the “MIC after Trypsin treatment” value (MRSA T144 [8]; T144, 1 h) of the same sequence?
**A.** >128 µg/mL

**Q.** And the “MIC after treatment at 40 °C” value (MRSA T144 [8]; T144, 1 h)?
**A.** 2 µg/mL

**Q.** What about the “MIC after treatment at 60 °C” value (MRSA T144 [8]; T144, 1 h) of the same sequence?
**A.** 4 µg/mL

**Q.** What about the “MIC after treatment at 80 °C” value (MRSA T144 [8]; T144, 1 h) of the same sequence?
**A.** 2 µg/mL

**Q.** And the “MIC after treatment at 100 °C” value (MRSA T144 [8]; T144, 1 h)?
**A.** 4 µg/mL

**Q.** And the “MIC after treatment at pH 2” value (MRSA T144 [8]; T144, 1 h, pH 2)?
**A.** 4 µg/mL

**Q.** And the “MIC after treatment at pH 4” value (MRSA T144 [8]; T144, 1 h, pH 4)?
**A.** 4 µg/mL

**Q.** And the “MIC after treatment at pH 6” value (MRSA T144 [8]; T144, 1 h, pH 6)?
**A.** 4 µg/mL

**Q.** And the “MIC after treatment at pH 8” value (MRSA T144 [8]; T144, 1 h, pH 8)?
**A.** 4 µg/mL

**Q.** What about the “MIC after treatment at pH 10” value (MRSA T144 [8]; T144, 1 h, pH 10) of the same sequence?
**A.** 4 µg/mL

**Q.** And the “MIC after treatment at pH 12” value (MRSA T144 [8]; T144, 1 h, pH 12)?
**A.** 4 µg/mL

From article PMC9610943, “Truncated Pleurocidin Derivative with High Pepsin Hydrolysis Resistance to Combat Multidrug-Resistant Pathogens” (Pharmaceutics, 2022)
